What is called inhibition is the share of the control response that was lost under treatment. What is called IC50 is the midpoint of a concentration-inhibition curve.

One test relates to rat adipocytes. The test can be described thus: isoproterenol-induced lipolysis measured as release of NBD-FA. Format: cell-based. Particulars: Rattus norvegicus, Adipocyte, given as 'up to', read-out: impairment of insulin inhibition of NBD-FA release. The protocol: Electroporation was performed as described in "Müller, G. et al., (2000) Mol. Cell. Biol. 20: 4708-4723". Lipolysis was determined as release of glycerol or fluorescent NBD-FA from prelabeled and isoproterenol-stimulated adipocytes as described in "Müller, G. et al., (2003) Biochimie 85: 1245-1256". Gce1 was detected by photolabeling of solubilized plasma membranes or hc/IcDIGs (10-50 µg protein) with 8-N3-[^32P]cAMP and subsequent phosphorimaging as described in "Müller, G. et al., (1994) Biochemistry 33: 12149-12159". 5'-Nuc, aP and AChE activities were measured according to "Eliakim, R. et al., (1990) Biochim. Biophys. Acta […]". Protein was determined using the BCA protein determination kit from Pierce (Rockford, IL) and BSA as calibration standard. SDS-PAGE was performed using precast gels (Novex, San Diego, CA; 10 % Bis-Tris resolving gel, morpholinopropanesulfonic acid-SDS running buffer). Lumiimages were evaluated on a Lumilmager using Lumilmager software (Roche Diagnostics). Phosphor- and fluorescence images were processed and quantified using the Storm 860 Phosphorlmager system (Molecular Dynamics, Gelsenkirchen, Germany). Figures were constructed using the Adobe Photoshop software (Adobe Systems, Mountain View, CA). […]

A further test deals with GPI-PLC. Particulars: read-out: IC50 for inhibition of the GPI-PLC; isolated intact hcDIGs; Fig. 4 Panels B, D.

As for `CCCCCCCCCCCCP1(=O)O[C@@H]2[C@H](O)[C@@H](O)[C@H](O)[C@@H](O)[C@@H]2O1` (mixture of isomers) [GPI-2350, myo-inositol-1,2-cyclo-dodecylphosphonic acid], in the test on rat adipocytes, the inhibition at 50 µM fell in the range of 25 to 30%. For the same compound, in the test on GPI-PLC, the IC50 was determined as 1 µM.
